Test results from US12077503B2, “Substituted cyclic amides and their use as herbicides” (FMC CORPORATION, priority 2015, dated 2024).

Experiments:
Format in all cases: in vivo
[1] = tested on: barnyardgrass (Echinochloa crus-galli); assay: Test G Pre-Emergence Protocol; conditions: Echinochloa crus-galli, pre-emergence, 312 h, evaluated after 13 days; for pest or weed control at 15.625 g/ha: 15.625 g ai/ha; for pest or weed control at 15.625 g/ha / pest or weed control at 250 g/ha: read-out: Barnyardgrass damage rating (100=total damage to plant; 0=no damage to plant); for pest or weed control at 62.5 g/ha: 62.5 g ai/ha, 100=total damage to plant, 0=no damage to plant, read-out: Barnyardgrass damage rating; for pest or weed control at 250 g/ha: 250 g ai/ha
Outline: (§1)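 Scores are visual damage ratings from 0 (no damage) to 100 (total plant kill), taken 13 days after treatment. Compound was sprayed one day post-sowing at 15.625, 62.5 or 250 g/ha in 50:50 acetone/water with 0.5% Tween 20.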

[2] = tested on: corn (Zea mays); assay: Test G Pre-Emergence Protocol; conditions: Zea mays, pre-emergence, 312 h, evaluated after 13 days; for plant injury at 15.625 g/ha: 15.625 g ai/ha; for plant injury at 15.625 g/ha / plant injury at 250 g/ha: read-out: Corn damage rating (100=total damage to plant; 0=no damage to plant); for plant injury at 62.5 g/ha: 62.5 g ai/ha, 100=total damage to plant, 0=no damage to plant, read-out: Corn damage rating; for plant injury at 250 g/ha: 250 g ai/ha
Outline: as §1

[3] = tested on: giant foxtail (Setaria faberi); assay: Test G Pre-Emergence Protocol; conditions: Setaria faberi, pre-emergence, 312 h, evaluated after 13 days; for pest or weed control at 15.625 g/ha: 15.625 g ai/ha; for pest or weed control at 15.625 g/ha / pest or weed control at 250 g/ha: read-out: Foxtail, Giant damage rating (100=total damage to plant; 0=no damage to plant); for pest or weed control at 62.5 g/ha: 62.5 g ai/ha, 100=total damage to plant, 0=no damage to plant, read-out: Foxtail, Giant damage rating; for pest or weed control at 250 g/ha: 250 g ai/ha
Outline: as §1

[4] = tested on: ivy-leaved morning glory (Ipomoea hederacea); assay: Test G Pre-Emergence Protocol; conditions: Ipomoea, pre-emergence, 312 h, evaluated after 13 days; for pest or weed control at 15.625 g/ha: 15.625 g ai/ha; for pest or weed control at 15.625 g/ha / pest or weed control at 250 g/ha: read-out: Morningglory, Ivy-leaved damage rating (100=total damage to plant; 0=no damage to plant); for pest or weed control at 62.5 g/ha: 62.5 g ai/ha, 100=total damage to plant, 0=no damage to plant, read-out: Morningglory, Ivy-leaved damage rating; for pest or weed control at 250 g/ha: 250 g ai/ha
Outline: as §1

[5] = tested on: redroot pigweed (Amaranthus retroflexus); assay: Test G Pre-Emergence Protocol; conditions: Amaranthus retroflexus, pre-emergence, 312 h, evaluated after 13 days; for pest or weed control at 15.625 g/ha: 15.625 g ai/ha; for pest or weed control at 15.625 g/ha / pest or weed control at 250 g/ha: read-out: Pigweed, Redroot damage rating (100=total damage to plant; 0=no damage to plant); for pest or weed control at 62.5 g/ha: 62.5 g ai/ha, 100=total damage to plant, 0=no damage to plant, read-out: Pigweed, Redroot damage rating; for pest or weed control at 250 g/ha: 250 g ai/ha
Outline: as §1

[6] = tested on: velvetleaf (Abutilon theophrasti); assay: Test G Pre-Emergence Protocol; conditions: Abutilon theophrasti, pre-emergence, 312 h, evaluated after 13 days; for pest or weed control at 15.625 g/ha: 15.625 g ai/ha; for pest or weed control at 15.625 g/ha / pest or weed control at 250 g/ha: read-out: Velvetleaf damage rating (100=total damage to plant; 0=no damage to plant); for pest or weed control at 62.5 g/ha: 62.5 g ai/ha, 100=total damage to plant, 0=no damage to plant, read-out: Velvetleaf damage rating; for pest or weed control at 250 g/ha: 250 g ai/ha
Outline: as §1

[7] = tested on: barnyardgrass (Echinochloa crus-galli); assay: Test G Post-Emergence Protocol; conditions: Echinochloa crus-galli, post-emergence, 312 h, read-out: Barnyardgrass damage rating; for pest or weed control at 15.625 g/ha: 15.625 g ai/ha, evaluated after 13 days (100=total damage to plant; 0=no damage to plant); for pest or weed control at 62.5 g/ha: 62.5 g ai/ha; for pest or weed control at 62.5 g/ha / pest or weed control at 250 g/ha: evaluated after 13 days, 100=total damage to plant, 0=no damage to plant; for pest or weed control at 250 g/ha: 250 g ai/ha
Outline: (§2)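 Post-emergence herbicidal damage, scored visually 0–100 at 13 days. Application at 15.625, 62.5 or 250 g/ha onto 8-day-old plants grown under glasshouse control.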

[8] = tested on: corn (Zea mays); assay: Test G Post-Emergence Protocol; conditions: Zea mays, post-emergence, 312 h, read-out: Corn damage rating; for plant injury at 15.625 g/ha: 15.625 g ai/ha, evaluated after 13 days (100=total damage to plant; 0=no damage to plant); for plant injury at 62.5 g/ha: 62.5 g ai/ha; for plant injury at 62.5 g/ha / plant injury at 250 g/ha: evaluated after 13 days, 100=total damage to plant, 0=no damage to plant; for plant injury at 250 g/ha: 250 g ai/ha
Outline: as §2

[9] = tested on: giant foxtail (Setaria faberi); assay: Test G Post-Emergence Protocol; conditions: Setaria faberi, post-emergence, 312 h, read-out: Foxtail, Giant damage rating; for pest or weed control at 15.625 g/ha: 15.625 g ai/ha, evaluated after 13 days (100=total damage to plant; 0=no damage to plant); for pest or weed control at 62.5 g/ha: 62.5 g ai/ha; for pest or weed control at 62.5 g/ha / pest or weed control at 250 g/ha: evaluated after 13 days, 100=total damage to plant, 0=no damage to plant; for pest or weed control at 250 g/ha: 250 g ai/ha
Outline: as §2

[10] = tested on: ivy-leaved morning glory (Ipomoea hederacea); assay: Test G Post-Emergence Protocol; conditions: Ipomoea, post-emergence, 312 h, read-out: Morningglory, Ivy-leaved damage rating; for pest or weed control at 15.625 g/ha: 15.625 g ai/ha, evaluated after 13 days (100=total damage to plant; 0=no damage to plant); for pest or weed control at 62.5 g/ha: 62.5 g ai/ha; for pest or weed control at 62.5 g/ha / pest or weed control at 250 g/ha: evaluated after 13 days, 100=total damage to plant, 0=no damage to plant; for pest or weed control at 250 g/ha: 250 g ai/ha
Outline: as §2

[11] = tested on: redroot pigweed (Amaranthus retroflexus); assay: Test G Post-Emergence Protocol; conditions: Amaranthus retroflexus, post-emergence, 312 h, read-out: Pigweed, Redroot damage rating; for pest or weed control at 15.625 g/ha: 15.625 g ai/ha, evaluated after 13 days (100=total damage to plant; 0=no damage to plant); for pest or weed control at 62.5 g/ha: 62.5 g ai/ha; for pest or weed control at 62.5 g/ha / pest or weed control at 250 g/ha: evaluated after 13 days, 100=total damage to plant, 0=no damage to plant; for pest or weed control at 250 g/ha: 250 g ai/ha
Outline: as §2

[12] = tested on: velvetleaf (Abutilon theophrasti); assay: Test G Post-Emergence Protocol; conditions: Abutilon theophrasti, post-emergence, 312 h, read-out: Velvetleaf damage rating; for pest or weed control at 15.625 g/ha: 15.625 g ai/ha, evaluated after 13 days (100=total damage to plant; 0=no damage to plant); for pest or weed control at 62.5 g/ha: 62.5 g ai/ha; for pest or weed control at 62.5 g/ha / pest or weed control at 250 g/ha: evaluated after 13 days, 100=total damage to plant, 0=no damage to plant; for pest or weed control at 250 g/ha: 250 g ai/ha
Outline: as §2

Row | Structure (SMILES) | pest or weed control at 15.625 g/ha [1] | pest or weed control at 62.5 g/ha [1] | pest or weed control at 250 g/ha [1] | plant injury at 15.625 g/ha [2] | plant injury at 62.5 g/ha [2] | plant injury at 250 g/ha [2] | pest or weed control at 15.625 g/ha [3] | pest or weed control at 62.5 g/ha [3] | pest or weed control at 250 g/ha [3] | pest or weed control at 15.625 g/ha [4] | pest or weed control at 62.5 g/ha [4] | pest or weed control at 250 g/ha [4] | pest or weed control at 15.625 g/ha [5] | pest or weed control at 62.5 g/ha [5] | pest or weed control at 250 g/ha [5] | pest or weed control at 15.625 g/ha [6] | pest or weed control at 62.5 g/ha [6] | pest or weed control at 250 g/ha [6] | pest or weed control at 15.625 g/ha [7] | pest or weed control at 62.5 g/ha [7] | further results
1 | COc1ccc([C@@H]2CN(C)C(=O)[C@H]2C(=O)Nc2cccc(F)c2C)cc1Cl (racemic) [Compound 1793] | 20% | 70% | 90% | 0% | 20% | 40% | 30% | 90% | 90% | 0% | 0% | 10% | 0% | 0% | 0% | 0% | 0% | 30% | 30% | 70% | pest or weed control at 250 g/ha [7]: 80%; plant injury at 15.625 g/ha [8]: 10%; plant injury at 62.5 g/ha [8]: 30%; plant injury at 250 g/ha [8]: 50%; pest or weed control at 15.625 g/ha [9]: 70%; pest or weed control at 62.5 g/ha [9]: 80%; pest or weed control at 250 g/ha [9]: 80%; pest or weed control at 15.625 g/ha [10]: 0%; pest or weed control at 62.5 g/ha [10]: 10%; pest or weed control at 250 g/ha [10]: 70%; pest or weed control at 15.625 g/ha [11]: 0%; pest or weed control at 62.5 g/ha [11]: 0%; pest or weed control at 250 g/ha [11]: 0%; pest or weed control at 15.625 g/ha [12]: 0%; pest or weed control at 62.5 g/ha [12]: 10%; pest or weed control at 250 g/ha [12]: 30%
2 | CN1C[C@H](c2cc(C(F)(F)F)cc(C(F)(F)F)c2)[C@@H](C(=O)Nc2ccccc2S(C)(=O)=O)C1=O (racemic) [Compound 1794] | 0% | 40% | 80% | 30% | 50% | 80% | 30% | 60% | 90% | 0% | 0% | 10% | 0% | 0% | 80% | 0% | 0% | 0% | 0% | 40% | pest or weed control at 250 g/ha [7]: 70%; plant injury at 15.625 g/ha [8]: 20%; plant injury at 62.5 g/ha [8]: 50%; plant injury at 250 g/ha [8]: 70%; pest or weed control at 15.625 g/ha [9]: 0%; pest or weed control at 62.5 g/ha [9]: 60%; pest or weed control at 250 g/ha [9]: 80%; pest or weed control at 15.625 g/ha [10]: 20%; pest or weed control at 62.5 g/ha [10]: 50%; pest or weed control at 250 g/ha [10]: 70%; pest or weed control at 15.625 g/ha [11]: 0%; pest or weed control at 62.5 g/ha [11]: 40%; pest or weed control at 250 g/ha [11]: 70%; pest or weed control at 15.625 g/ha [12]: 0%; pest or weed control at 62.5 g/ha [12]: 0%; pest or weed control at 250 g/ha [12]: 10%
3 | CN1C[C@H](c2ccc(C(F)(F)F)c(C(F)(F)F)c2)[C@@H](C(=O)Nc2ccccc2S(C)(=O)=O)C1=O (racemic) [Compound 1799] | 10% | 70% | 70% | 0% | 70% | 80% | 50% | 90% | 90% | 0% | 0% | 0% | 0% | 10% | 40% | 0% | 0% | 20% | 0% | 60% | pest or weed control at 250 g/ha [7]: 70%; plant injury at 15.625 g/ha [8]: 10%; plant injury at 62.5 g/ha [8]: 60%; plant injury at 250 g/ha [8]: 70%; pest or weed control at 15.625 g/ha [9]: 20%; pest or weed control at 62.5 g/ha [9]: 70%; pest or weed control at 250 g/ha [9]: 70%; pest or weed control at 15.625 g/ha [10]: 10%; pest or weed control at 62.5 g/ha [10]: 60%; pest or weed control at 250 g/ha [10]: 30%; pest or weed control at 15.625 g/ha [11]: 0%; pest or weed control at 62.5 g/ha [11]: 60%; pest or weed control at 250 g/ha [11]: 70%; pest or weed control at 15.625 g/ha [12]: 0%; pest or weed control at 62.5 g/ha [12]: 20%; pest or weed control at 250 g/ha [12]: 10%
